Assays:
Sphaerotheca fuliginea = experiment: Cucumber Powdery Mildew (CPM) protectant test in the greenhouse; type: in vivo; settings: 100 is total disease control, 0 is no disease control; for Cucumber Powdery Mildew (CPM) protectant fungicide data, percent control: 300 g/ha
Procedure: Plants used in the fungicide testing program were grown in 2-¼-inch (5.7-cm). square pots containing RediEarth propagation substrate. The plants were raised under greenhouse conditions. The rice plants were 12-days-old and cucumbers were 13-days-old at the time of spraying with chemical treatments.
The sample of the experimental chemical was weighed and dissolved in an acetone-methanol-water solution (A/M/W at 1:1:2 ratio by volume).
After sprayer calibration, the test solutions were poured into the fungicide sprayer. The fungicide sprayer contains three spray nozzles, located approximately 10 cm above and to the sides of the plants. The spray produced by the nozzles results in uniform coverage of both the upper and lower parts of the plant leaves. After spraying, the treated plants were placed in a drying chamber for 4 hours, prior to sorting.
Cucumber Powdery Mildew (CPM), caused by the fungus Sphaerotheca fuliginea, was maintained on large cucumber plants. For inoculum preparation, five to eight leaves depending on size, completely covered with powdery mildew spores, were collected. The leaves were placed in a glass jar and covered with 500 ml of water, containing 5 drops of Tween-80. The material was filtered through two layers of cheesecloth to remove leaf fragments. The spore count was adjusted to 2×10^5 spores per ml.
Cucumber plants, cv. “Bush Champion,” were used for this test. The plants were thinned to one per pot after the cotyledons were fully developed. Two days before the test, the small leaves and meristem region were removed, leaving only the cotyledons and one large true leaf.
The protectant tests required that the cucumber plants be inoculated 1 day after spraying with the chemical treatment. The plants were inoculated with a hand-held spray bottle with the suspension of fungal spores. The leaves were lightly misted on the upper surface from two different spray directions. Disease development occurred in the greenhouse.
After seven days, the plants were evaluated for percent of disease control. The results are reported as percent control; 100 is total disease control, 0 is no disease control.

Pyricularia oryzae = experiment: whole plant or invertebrate; type: in vivo; settings: 100 is total disease control, 0 is no disease control; for Rice Blast (RB) protectant fungicide data, percent control: 300 g/ha, greenhouse

SMILES	Cucumber Powdery Mildew (CPM) protectant fungicide data, percent control (Sphaerotheca fuliginea)	Rice Blast (RB) protectant fungicide data, percent control (Pyricularia oryzae)	pest or weed control at 300 g/ha (Sphaerotheca fuliginea; Podosphaera fuliginea, topical, 168 h, read-out: Cucumber Powdery Mildew (CPM) protectant fungicide data, percent control)	pest or weed control at 300 g/ha (Pyricularia oryzae; Pyricularia oryzae, topical, 144 h, read-out: Rice Blast (RB) protectant fungicide data, percent control, protectant, 300 g/ha, greenhouse)
CCCCN1N=C(c2cc(Cl)cc(Cl)c2)N(C(=O)OC)CC1=O [Compound 130]	0 percent control	50 percent control		
O=C1CN(CC2CC2)C(c2cccc(Br)c2)=NN1CC1CC1 [Compound 224]	50 percent control	75 percent control		
O=C1CNC(C2CCCCC2)=NN1CC(F)(F)F [Compound 45]	0 percent control	75 percent control		
O=C1CNC(c2cccc([N+](=O)[O-])c2)=NN1CC(F)(F)F [Compound 167]	0 percent control	85 percent control		
CCCCCCCCN1N=C(c2ccc(Cl)cc2)NCC1=O [Compound 56]	80 percent control	80 percent control		
COC(=O)SN1CC(=O)N(CC(F)(F)F)N=C1c1cc(Cl)cc(Cl)c1 [Compound 292]	75 percent control	99 percent control		
CCCCN1N=C(C)NC(c2ccc(C)cc2)C1=O (stereo not shown) [Compound 75]	85 percent control	0 percent control		
CCCCCCCCCCN1N=C(c2ccc(Cl)cc2)NCC1=O [Compound 57]	0 percent control	50 percent control		
CCCCn1nc(-c2ccc(Cl)cc2)ncc1=O [Compound 258]	75 percent control	100 percent control		
CCCCN1N=C(c2ccc(Cl)cc2Cl)NCC1=O [Compound 2, 1-butyl-3-(2,4-dichlorophenyl)-4,5-dihydro-1,2,4-triazin-6-one]			85%	95%
CCCCN1N=C(C)NC(c2ccc(OC)cc2)C1=O (stereo not shown) [Compound 79]	50 percent control	75 percent control		
O=C1CN(CC2CC2)C(c2ccc(F)c(Br)c2)=NN1CC1CC1 [Compound 219]	75 percent control	50 percent control		
CCCCN1N=C(c2ccccc2OC)NCC1=O [Compound 195]	50 percent control	99 percent control		
Cc1cc(C)cc(C2=NN(CC(F)(F)F)C(=O)CN2)c1 [Compound 296]	75 percent control	98 percent control		
CCCCN1N=C(c2ccc3ccccc3c2)NCC1=O [Compound 119]	0 percent control	99 percent control		
CCCCN1N=C(c2cc(Br)c(OC)c(Br)c2)NCC1=O [Compound 120]	0 percent control	80 percent control		
Cc1cccc(-n2nc(-c3cccc(Cl)c3)ncc2=O)c1 [Compound 278]	0 percent control	85 percent control		
CCCCn1nc(-c2ccccc2O)ncc1=O [Compound 287]	0 percent control	80 percent control		
CCCN1N=C(c2cc(Cl)cc(Cl)c2)NCC1=O [Compound 164]	95 percent control	100 percent control		
CCCCN1N=C(c2ccccc2OCc2ccccc2)NCC1=O [Compound 213]	50 percent control	85 percent control		

Reference: US7494996B2 (priority 2000, dated 2009)
